This note sets out measurements from patent US8664289B2, “Dye and coloring photosensitive composition” (Adeka Corporation, priority 2010, dated 2014).

Format in all cases: physicochemical
Data set [1] is described as follows: Evaluation of heat resistance by TG-DTA. To be noted: temperature at 10% weight loss. As for the experimental part: Compounds Nos. 1 to 7, 16, 26, 43, 52 to 62, 65, 66, 69, 70 and 94 to 102 and Comparative Compounds Nos. 1 and 2 obtained above were analyzed by TG-DTA, and the melting points and temperatures at 10% weight loss were measured. The results are shown in [Table 6].

Data set [2] in a line: Heat resistance of exposed coating film of coloring alkali-developable photosensitive composition. To be noted: for Relative intensity After exposure: coating film after exposure (150 mJ/cm^2), before heating; for λmax: coating film of composition containing the compound, on glass; for Relative intensity 230° C., 30 min: exposed coating film after 230° C. From the text: 30.33 g of ACA Z250 (manufactured by Daicel Cytec Company Ltd.) and 11.04 g of ARONIX M-450 (manufactured by Toagosei Co., Ltd.) as the component (B), 1.93 g of IRGACURE 907 (manufactured by BASF) as the component (C), 36.60 g of PGMEA and 20.08 g of cyclohexanone as the component (E), as well as 0.01 g of FZ2122 (manufactured by Dow Corning Toray Co., Ltd.) as other component were mixed and stirred until insoluble components were diminished to give Alkali-developable photosensitive composition No. 1.
1.90 g of dimethylacetamide was added to 0.10 g of Compound No. 1 obtained above as the component (A) and dissolved under stirring.
5.0 g of Alkali-developable photosensitive composition No. 1 obtained in Step 1 and 1.0 g of Dye liquid No. 1 obtained in Step 2 were mixed and stirred to homogeneous to give Coloring alkali-developable photosensitive composition No. 1 of the present invention.
Coloring alkali-developable photosensitive compositions Nos. 2 to 20 were obtained in a similar manner to that in Example 2-1, except that Compound No. 1 as the component (A) in Step 2 of Example 2-1 was changed to Compound No. 2, 3, 5, 6, 16, 53, 56, 57, 59, 60, 65, 66, 94 or 96 to 101 obtained above.
Comparative coloring alkali-developable photosensitive compositions Nos. 1 and 2 were obtained in a similar manner to that in Example 2-1, except that Compound No. 1 as the component (A) in Step 2 of Example 2-1 was changed to Comparative Compound No. 1 or 2.
The coloring alkali-developable photosensitive compositions obtained in Example 2 were each applied to a glass basal plate under a condition of 410 rpm×7 sec and dried (90° C., 90 sec) on a hot plate. The obtained coating film was exposed (150 mJ/cm^2) by using an ultrahigh pressure mercury lamp. The heat resistance of the exposed coating film was investigated under conditions of 180° C.×60 min and 230° C.×30 min. The results are shown in [Table 7].
Using the coloring alkali-developable photosensitive compositions obtained in Examples 2-2 to 2-20 and Comparative Examples 2-1 and 2-2, heat resistance was investigated in a similar manner to that in Evaluation Example 3. The results are shown in [Table 7].

A short description of data set [3]: Evaluation of absorption wavelength property in CHCl3 solution. Set-up: ε: unit not given here. To be noted: for ε: molar absorption coefficient. From the text: The absorption wavelength properties of Compounds Nos. 1 to 7, 16, 26, 43, 52 to 62, 65, 66, 69, 70 and 94 to 102 and Comparative Compounds Nos. 1 and 2 obtained above were each evaluated in a CHCl3 solution. The results are shown in [Table 5].

Another data set in a line: Solubility in PGMEA. To be noted: concentration when PGMEA was added dropwise to 0.1 g of the compound under stirring and was dissolved completely. Here is the method: That the obtained solid was an intended product was confirmed by ^1H-NMR and IR. Furthermore, the solubility of the obtained compound was measured. The solubility was a concentration when PGMEA was added dropwise to 0.1 g of the compound under stirring and was dissolved completely. The results thereof are shown in [Table 1] to [Table 4].
That the obtained solid was an intended product was confirmed by ^1H-NMR and IR. Furthermore, the solubility of the obtained compound was measured. The solubility was a concentration when PGMEA was added to 0.1 g of the compound while stirring and was dissolved completely. The results thereof are shown in [Table 1] to [Table 4]

For `CCN(CC)c1ccc(/C=C(\C#N)C(=O)OCC(C)(COC(=O)/C(C#N)=C/c2ccc(N3CCOCC3)cc2)COC(=O)/C(C#N)=C/c2ccc(N3CCOCC3)cc2)cc1` [Compound No. 97], the 10% weight loss in data set [1] came out at 334 °C. In data set [2], the “Relative intensity After exposure” value was 100; the λmax is 417 nm; the “Relative intensity 230° C., 30 min” value is listed as 98.2. Also, in data set [3], the λmax was 417 nm and the ε came out at 103000. Also, the “Solubility (PGMEA)” value in the data set “Solubility in PGMEA” is recorded as 10.0 wt %.

`CCN(CC)c1ccc(/C=C(\C#N)C(=O)OCC(COC(=O)/C(C#N)=C/c2ccc(N(CC)CC)cc2)(COC(=O)/C(C#N)=C/c2ccc(N(CC)CC)cc2)COC(=O)/C(C#N)=C/c2ccc(N(CC)CC)cc2)cc1` [Compound No. 16]: the 10% weight loss in data set [1] is 328 °C. Further, in data set [2], the “Relative intensity After exposure” value stood at 100; the λmax turned out to be 438 nm; the “Relative intensity 230° C., 30 min” value was found to be 99.7. In data set [3], this compound came in with a λmax of 439 nm and a ε of 210000. The “Solubility (PGMEA)” value in “Solubility in PGMEA” turned out to be 1.8 wt %.

In data set [1], `CCN(CC)c1ccc(/C=C(\C#N)C(=O)OCC(C)(COC(=O)/C(C#N)=C/c2ccc(N(C)CCO)cc2)COC(=O)/C(C#N)=C/c2ccc(N(CC)CC)cc2)cc1` (centres unmarked) [Compound No. 100] showed a 10% weight loss of 330 °C. In data set [2], the “Relative intensity After exposure” value is listed as 100; the λmax stood at 436 nm; the “Relative intensity 230° C., 30 min” value was determined as 99.7. In addition, in data set [3], the λmax is given as 434 nm and the ε amounted to 147000. Moreover, the “Solubility (PGMEA)” value in “Solubility in PGMEA” is given as 6.0 wt %.

In data set [1], `N#C/C(=C\c1ccc(N(c2ccccc2)c2ccccc2)cc1)C(=O)OCCCCCCCOC(=O)/C(C#N)=C/c1ccc(N(c2ccccc2)c2ccccc2)cc1` [Compound No. 65] displayed a 10% weight loss of 354 °C. For the same compound, in data set [2], the “Relative intensity After exposure” value was 100; the λmax was 430 nm; the “Relative intensity 230° C., 30 min” value is given as 99.3. For the same compound, in data set [3], the λmax is 435 nm and the ε is 65300. The “Solubility (PGMEA)” value in the data set “Solubility in PGMEA” is given as 5.3 wt %.

For the compound `CCN(CC)c1ccc(/C=C(\C#N)C(=O)OCCCCCCCOC(=O)/C(C#N)=C/c2ccc(N(CC)CC)cc2)cc1` [Compound No. 5], the 10% weight loss in data set [1] turned out to be 348 °C. Also, in data set [2], the “Relative intensity After exposure” value was determined as 100; the λmax turned out to be 431 nm; the “Relative intensity 230° C., 30 min” value is 99.5. In data set [3], this compound showed a λmax of 430 nm and a ε of 110000. For the same compound, in “Solubility in PGMEA”, the “Solubility (PGMEA)” value is listed as 2.0 wt %.

`CN(CCO)c1ccc(/C=C(\C#N)C(=O)OCCCCCCOC(=O)/C(C#N)=C/c2ccc(N(C)CCO)cc2)cc1` [Compound No. 59] showed a 10% weight loss in data set [1] of 295 °C. For the same compound, in data set [2], the “Relative intensity After exposure” value was determined as 100; the λmax was determined as 431 nm; the “Relative intensity 230° C., 30 min” value is recorded as 99.7. In data set [3], this compound yielded a λmax of 420 nm and a ε of 89900. The “Solubility (PGMEA)” value in the data set “Solubility in PGMEA” is recorded as 1.0 or less wt %.

With `CCN(CC)c1ccc(/C=C(\C#N)C(=O)OCC(CC)(COC(=O)/C(C#N)=C/c2ccc(N(CC)CC)cc2)COC(=O)/C(C#N)=C/c2ccc(N(CC)CC)cc2)cc1` [Compound No. 57], the 10% weight loss in data set [1] is 339 °C. For the same compound, in data set [2], the “Relative intensity After exposure” value is 100; the λmax was determined as 430 nm; the “Relative intensity 230° C., 30 min” value is on record as 99.9. Further, in data set [3], the λmax is 437 nm and the ε was 152000. Besides, the “Solubility (PGMEA)” value in the data set “Solubility in PGMEA” is on record as 1.0 or less wt %.

Compound `C=C(C)C(=O)OCCN(C)c1ccc(/C=C(\C#N)C(=O)OCCCCCCOC(=O)/C(C#N)=C/c2ccc(N(C)CCOC(=O)C(=C)C)cc2)cc1` [Compound No. 66] came in with a 10% weight loss in data set [1] of 354 °C. In addition, in data set [2], the “Relative intensity After exposure” value stood at 100; the λmax is on record as 419 nm; the “Relative intensity 230° C., 30 min” value is reported as 99.2. In data set [3], this compound registered a λmax of 419 nm and a ε of 94100. Besides, the “Solubility (PGMEA)” value in the data set “Solubility in PGMEA” is given as 1.0 or less wt %.

Compound `CCN(CC)c1ccc(/C=C(\C#N)C(=O)OCC(C)(COC(=O)/C(C#N)=C/c2ccc(N(C)CCO)cc2)COC(=O)/C(C#N)=C/c2ccc(N(C)CCO)cc2)cc1` [Compound No. 99] came in with a 10% weight loss in data set [1] of 320 °C. Moreover, in data set [2], the “Relative intensity After exposure” value is 100; the λmax is reported as 433 nm; the “Relative intensity 230° C., 30 min” value came to 99.6. Moreover, in data set [3], the λmax came to 431 nm and the ε amounted to 130000. Besides, the “Solubility (PGMEA)” value in the data set “Solubility in PGMEA” is on record as 1.0 or less wt %.

`CN(CCO)c1ccc(/C=C(\C#N)C(=O)OCC(C)(COC(=O)/C(C#N)=C/c2ccc(N(C)CCO)cc2)COC(=O)/C(C#N)=C/c2ccc(N(C)CCO)cc2)cc1` [Compound No. 98] returned a 10% weight loss in data set [1] of 288 °C. In data set [2], the “Relative intensity After exposure” value is reported as 100; the λmax was 431 nm; the “Relative intensity 230° C., 30 min” value was determined as 99.5. In data set [3], this compound came in with a λmax of 428 nm and a ε of 119000. In addition, the “Solubility (PGMEA)” value in the data set “Solubility in PGMEA” is 1.0 or less wt %.

Compound `CC(COC(=O)/C(C#N)=C/c1ccc(N(Cc2ccccc2)Cc2ccccc2)cc1)(COC(=O)/C(C#N)=C/c1ccc(N(Cc2ccccc2)Cc2ccccc2)cc1)COC(=O)/C(C#N)=C/c1ccc(N(Cc2ccccc2)Cc2ccccc2)cc1` [Compound No. 101] displayed a 10% weight loss in data set [1] of 336 °C. In data set [2], the “Relative intensity After exposure” value was determined as 100; the λmax was found to be 426 nm; the “Relative intensity 230° C., 30 min” value is 99.4. In data set [3], the λmax amounted to 425 nm and the ε is 153000. The “Solubility (PGMEA)” value in the data set “Solubility in PGMEA” worked out at 10.0 wt %.

The compound `CCN(CC)c1ccc(/C=C(\C#N)C(=O)OCC(C)OC(=O)/C(C#N)=C/c2ccc(N(CC)CC)cc2)cc1` (centres unmarked) [Compound No. 2] had a 10% weight loss in data set [1] of 312 °C. In data set [2], the “Relative intensity After exposure” value is listed as 100; the λmax worked out at 430 nm; the “Relative intensity 230° C., 30 min” value came out at 99.3. Further, in data set [3], the λmax came out at 434 nm and the ε is 100000. The “Solubility (PGMEA)” value in the data set “Solubility in PGMEA” stood at 4.0 wt %.

`N#C/C(=C\c1ccc(N2CCOCC2)cc1)C(=O)OCCCCCCCOC(=O)/C(C#N)=C/c1ccc(N2CCOCC2)cc1` [Compound No. 60] had a 10% weight loss in data set [1] of 350 °C. In addition, in data set [2], the “Relative intensity After exposure” value is given as 100; the λmax is on record as 408 nm; the “Relative intensity 230° C., 30 min” value amounted to 73.8. In data set [3], this compound came in with a λmax of 405 nm and a ε of 71700. Further, the “Solubility (PGMEA)” value in the data set “Solubility in PGMEA” is 1.0 or less wt %.

Take `CCN(CC)c1ccc(/C=C(\C#N)C(=O)OCCOC(=O)/C(C#N)=C/c2ccc(N(CC)CC)cc2)cc1` [Compound No. 1]: in data set [1], the 10% weight loss came to 318 °C. In data set [2], the “Relative intensity After exposure” value is on record as 100; the λmax came to 418 nm; the “Relative intensity 230° C., 30 min” value is on record as 99.4. In data set [3], this compound registered a λmax of 436 nm and a ε of 107000. Moreover, the “Solubility (PGMEA)” value in the data set “Solubility in PGMEA” was 0.5 wt %.
